# According to US8507562B2, “Synthesis of (1)-beta-elemene, (-)-beta-elemenal, (-)-beta-elemenol, (-)-beta-elemene fluoride and their analogues, intermediates, and composition and uses thereof” (HYWE Pharmaceuticals, Inc., priority 2004, dated 2013):
# Where two headings read alike, the source gives them in different places.
# Legend:
# [1] = system: human glioma SHG44 (xenograph in brain); test: Tumor xenographed in mice brain, survival; assay type: in vivo, nude mice; conditions: for Survival time as % of control (T/C): compared to control
# Experimental: Mice model with tumor xenographed in mice brain: Glioma cell line G-422 or SHG44 (log phase) were diluted to 2×10^7/ml in cell culture hood (no bacteria environment). Each mouse was injected with 0.05 ml of tumor cell in its brain. […] The survival time of these mice was recorded in the next 30 days. The life extension was calculated using the following formula: Life Extension Rate=[( […])/Average survival days of control group[×100 Results: […]
# [2] = system: human prostate cancer PC-3M
# [3] = system: human breast cancer Bcap-37
# [4] = system: human glioma G-422 (xenograph under skin); test: Xenograph under skin, injection directly into tumor; assay type: in vivo, mice; conditions: for Tumor Weight X ± SD: in g (unit assumed)
# Description: The mice were killed after 3 weeks.
# [5] = system: Colon Cancer Cells HCT-116; test: MTS cell viability assay; assay type: cell-based, human; conditions: combinations with Elemene 160 μg/ml, n = 8
# [6] = Blood brain barrier passage of 3H labeled Elemene; assay type: in vivo, experimental animals; conditions: own animal experiment, tritium labeled, parent, derivatives and/or metabolites not distinguished
# Description: But no careful experiments were done to figure out if it is beta-elemene itself, or its derivatives, or its metabolite or a combination of the above, which pass the BBB. Thus how Elemene works to treat brain tumor is unknown.
# [7] = 3H labeled Elemene, intravenous or oral, radioactivity detected in brain; cited from earlier work
# BEL-7402 cells = BEL-7402 cells after 6 weeks of induction with Elemene at 48.9 ug/ml; cited from earlier work
# [8] = Chronic toxicity study, 28 days i.v.; assay type: in vivo; conditions: Beagle dogs
# [9] = system: Colon Cancer Cells Caco-2; test: MTS cell viability assay; assay type: cell-based, human; conditions: combinations with Elemene 100 μg/ml, n = 8
# Experimental: (§1) Cells were maintained at 37° C. in a humidified atmosphere including 5% CO2. […] Drugs were dissolved in 100% DMSO and then diluted in medium for experiments.
# H-460 lung cancer = test: MTT survival assay; assay type: cell-based, human; conditions: 2 × 10^4 cells/ml
# Experimental: (§2) The MTT assay is a commonly used method in evaluation of cell survival, based on the ability of viable cells to convert MTT, a soluble tetrazolium salt [3-(4,5-dimethylthuazole-2-yl)-2,5 diphenyl tetrazolium bromide], into an insoluble formazan precipitate, which is quantitated by spectrophotometry following solubilization in dimethyl sulfoxide (DMSO).
# (§3) The cells were then solubilized in 125 μl of DMSO and absorbance readings were taken using a 96-well Opsys MRI Microplate Reader (ThermoLabsystems; Chantilly, Va.). The amount of MTT dye reduction was calculated based on the difference between absorbance at 570 nm and at 630 nm. Cell viability in treated cells was expressed as the amount of dye reduction relative to that of untreated control cells. The wells which contained only medium and 10 μl of MTT were used as blanks for the plate reader. Three sets of experiments were performed in 8-12 wells for each treatment.
# (§4) In brief, carcinoma cells treated with test articles alone, in 96-well tissue culture dishes were incubated with MTT (2 μg/ml) for 4 h. The cells were then solubilized in 125 μl of DMSO and absorbance readings were taken using a 96-well Opsys MRI Microplate Reader (ThermoLabsystems; Chantilly, Va.). The amount of MTT dye reduction was calculated based on the difference between absorbance at 570 nm and at 630 nm. Cell viability in treated cells was expressed as the amount of dye reduction relative to that of untreated control cells. The wells that contained only medium and 10 μl of MTT were used as blanks for the plate reader.
# (§5) The cells were then solubilized in 125 μl of DMSO and absorbance readings were taken using a 96-well Opsys MRI Microplate Reader (ThermoLabsystems; Chantilly, Va.). The amount of MTT dye reduction was calculated based on the difference between absorbance at 570 nm and at 630 nm. Cell viability in treated cells was expressed as the amount of dye reduction relative to that of untreated control cells. The wells which contained only medium and 10 μI of MTT were used as blanks for the plate reader. Three sets of experiments were performed in 8-12 wells for each treatment.
# [10] = system: Non-small-cell lung cancer (NSCLC) cell lines; test: Mechanism in NSCLC cells
# human glioma cells = test: MTT assay, elemene analogs; assay type: cell-based
# Experimental: as §2, §3
# A549 lung cancer = test: MTT survival assay; conditions: 2 × 10^4 cells/ml
# Experimental: as §2, §4
# STTG1 brain tumor = test: MTT survival assay; assay type: cell-based, human
# Experimental: as §2, §3
# [11] = system: Colon Cancer Cells HCT-15
# Experimental: as §1
# A-172 brain tumor = test: MTT survival assay; assay type: cell-based, human; conditions: A172, 72 h
# Experimental: as §2, §3, §5
# [12] = 12.5 mg/kg/time iv × 10 bid, listed as β-Elemene
# [13] = 25 mg/kg/time iv × 10 bid, listed as β-Elemene
# [14] = 50 mg/kg/time iv × 10 bid, listed as β-Elemene
substance,measurement,setting,value
(−)-Beta-elemene,Average Life Span (day) X± SD,[1]; 7.5 mg/kg/time iv × 10 qd,20.2 ± 1.7 days
same,Survival time as % of control (T/C),[1]; 7.5 mg/kg/time iv × 10 qd,132.84%
same,Survival time as % of control (T/C),"[1]; 7.5 mg/kg/time iv × 10 qd, listed as β-Elemene",128.72%
same,Average Life Span (day) X± SD,[1]; 15 mg/kg/time iv × 10 qd,21.8 ± 1.9 days
same,Survival time as % of control (T/C),[1]; 15 mg/kg/time iv × 10 qd,140.46%
same,Survival time as % of control (T/C),"[1]; 15 mg/kg/time iv × 10 qd, listed as β-Elemene",139.31%
same,Average Life Span (day) X± SD,[1]; 30 mg/kg/time iv × 10 qd,23.3 ± 3.6 days
same,Survival time as % of control (T/C),[1]; 30 mg/kg/time iv × 10 qd,150.37%
same,Survival time as % of control (T/C),"[1]; 30 mg/kg/time iv × 10 qd, listed as β-Elemene",148.69%
same,Average Life Span (day) X± SD,[1]; 60 mg/kg/time iv × 10 qd,25.2 ± 3.1 days
same,Survival time as % of control (T/C),[1]; 60 mg/kg/time iv × 10 qd,159.81%
same,Survival time as % of control (T/C),"[1]; 60 mg/kg/time iv × 10 qd, listed as β-Elemene",160.36%
same,Inhibition Rate %,[2]; 12.5 mg/kg/time iv × 10 bid,27.95%
same,Tumor Weight (g) X ± SD,[2]; 12.5 mg/kg/time iv × 10 bid,1.16 ± 0.12 g
same,Inhibition Rate %,[2]; 25 mg/kg/time iv × 10 bid,34.78%
same,Tumor Weight (g) X ± SD,[2]; 25 mg/kg/time iv × 10 bid,1.05 ± 0.07 g
same,Inhibition Rate %,[2]; 50 mg/kg/time iv × 10 bid,46.58%
same,Tumor Weight (g) X ± SD,[2]; 50 mg/kg/time iv × 10 bid,0.86 ± 0.12 g
same,Inhibition Rate %,[3]; 12.5 mg/kg/time iv × 10 bid,36.09%
same,Tumor Weight (g) X ± SD,[3]; 12.5 mg/kg/time iv × 10 bid,0.870 ± 0.04 g
same,Inhibition Rate %,[3]; [12],33.08%
same,Inhibition Rate %,[3]; 25 mg/kg/time iv × 10 bid,45.31%
same,Tumor Weight (g) X ± SD,[3]; 25 mg/kg/time iv × 10 bid,0.738 ± 0.07 g
same,Inhibition Rate %,[3]; [13],43.23%
same,Inhibition Rate %,[3]; 50 mg/kg/time iv × 10 bid,51.33%
same,Tumor Weight (g) X ± SD,[3]; 50 mg/kg/time iv × 10 bid,0.675 ± 0.10 g
same,Inhibition Rate %,[3]; [14],48.08%
same,Inhibition Rate %,[4]; 15 mg/kg it × 10 qd,32.00%
same,Tumor Weight X ± SD,[4]; 15 mg/kg it × 10 qd,1.53 ± 0.27
same,Inhibition Rate %,[4]; 30 mg/kg it × 10 qd,47.11%
same,Tumor Weight X ± SD,[4]; 30 mg/kg it × 10 qd,1.19 ± 0.55
same,Inhibition Rate %,[4]; 60 mg/kg it × 10 qd,60.89%
same,Tumor Weight X ± SD,[4]; 60 mg/kg it × 10 qd,0.88 ± 0.24
same,Inhibition Rate %,human lung cancer A549; 12.5 mg/kg/time iv × 10 bid,31.28%
same,Tumor Weight (g) X ± SD,human lung cancer A549; 12.5 mg/kg/time iv × 10 bid,1.34 ± 0.10 g
same,Tumor Weight (g) X ± SD,human lung cancer A549; 25 mg/kg/time iv × 10 bid,1.17 ± 0.09 g
same,Inhibition Rate %,human lung cancer A549; [13],40.0%
same,Inhibition Rate %,human lung cancer A549; 50 mg/kg/time iv × 10 bid,43.08%
same,Tumor Weight (g) X ± SD,human lung cancer A549; 50 mg/kg/time iv × 10 bid,1.11 ± 0.08 g
same,IC50,"[5]; HCT-116, 4 hr/24 hr × 2",203 ± 23.1 µg/mL
same,IC50,"[5]; HCT-116, 4 hr/24 hr × 3",165 ± 22.0 µg/mL
same,IC50,"[5]; HCT-116, 4 hr/24 hr",230 ± 25.2 µg/mL
same,IC50,"[5]; HCT-116, 4 hr",363 ± 45.9 µg/mL
same,IC50,"[5]; HCT-116, 8 hr",206 ± 24.2 µg/mL
same,IC50,"[5]; HCT-116, 12 hr",201 ± 12.0 µg/mL
same,IC50,"[5]; HCT-116, 24 hr",184 ± 26.1 µg/mL
same,IC50,"[5]; HCT-116, 48 hr",163 ± 21.8 µg/mL
same,IC50,"[5]; HCT-116, 72 hr",157 ± 22.0 µg/mL
same,blood brain barrier (BBB) passage,[6],pass the blood-brain-barrier
same,blood brain barrier (BBB) passage,[6]; listed as beta-elemene,can pass blood brain barrier
same,blood brain barrier (BBB) passage,[7],passes the blood brain barrier
same,expression of MDR1 mRNA or P-glycoprotein (P-gp),BEL-7402 cells,did not express MDR1 mRNA or P-glycoprotein (P-gp)
same,"side effects, high dose group","[8]; 75 mg/kg/d i.v., 28 days","nausea, vomiting, appetite loss, weight loss, saliva dripping and other side effects"
same,"pathology changes, low and medium dose groups","[8]; 15 and 30 mg/kg/d i.v., 28 days",No significant pathology changes related to drug
same,non-toxic dose,"[8]; i.v., 28 days consecutively",15 mg/kg
same,IC50,"[9]; Caco-2, 4 hr/24 hr × 2",91.0 ± 7.55 µg/mL
same,IC50,"[9]; Caco-2, 4 hr/24 hr × 3",81.1 ± 10.3 µg/mL
same,IC50,"[9]; Caco-2, 4 hr/24 hr",108 ± 2.55 µg/mL
same,IC50,"[9]; Caco-2, 4 hr",171 ± 16.0 µg/mL
same,IC50,"[9]; Caco-2, 8 hr",167 ± 32.9 µg/mL
same,IC50,"[9]; Caco-2, 12 hr",104 ± 10.7 µg/mL
same,IC50,"[9]; Caco-2, 24 hr",107 ± 6.00 µg/mL
same,IC50,"[9]; Caco-2, 48 hr",91.0 ± 7.51 µg/mL
same,IC50,"[9]; Caco-2, 72 hr",89.1 ± 9.08 µg/mL
same,Inhibition Rate %,human liver cancer QGY; 12.5 mg/kg/time iv × 10 bid,30.92%
same,Tumor Weight (g) X ± SD,human liver cancer QGY; 12.5 mg/kg/time iv × 10 bid,1.43 ± 0.12 g
same,Inhibition Rate %,human liver cancer QGY; 25 mg/kg/time iv × 10 bid,37.20%
same,Tumor Weight (g) X ± SD,human liver cancer QGY; 25 mg/kg/time iv × 10 bid,1.30 ± 0.18 g
same,Inhibition Rate %,human liver cancer QGY; 50 mg/kg/time iv × 10 bid,45.89%
same,Tumor Weight (g) X ± SD,human liver cancer QGY; 50 mg/kg/time iv × 10 bid,1.12 ± 0.19 g
same,IC50,"H-460 lung cancer; H460, 24 h",89.5 µg/mL
same,IC50,"H-460 lung cancer; H460, 48 h",70.6 µg/mL
same,IC50,"H-460 lung cancer; H460, 72 h",68.2 µg/mL
same,Inhibition Rate %,human colon cancer HCT-8; 12.5 mg/kg/time iv × 10 bid,38.32%
same,Tumor Weight (g) X ± SD,human colon cancer HCT-8; 12.5 mg/kg/time iv × 10 bid,0.928 ± 0.07 g
same,Inhibition Rate %,human colon cancer HCT-8; [12],35.10%
same,Inhibition Rate %,human colon cancer HCT-8; 25 mg/kg/time iv × 10 bid,49.49%
same,Tumor Weight (g) X ± SD,human colon cancer HCT-8; 25 mg/kg/time iv × 10 bid,0.772 ± 0.05 g
same,Inhibition Rate %,human colon cancer HCT-8; [13],46.01%
same,Inhibition Rate %,human colon cancer HCT-8; 50 mg/kg/time iv × 10 bid,57.15%
same,Tumor Weight (g) X ± SD,human colon cancer HCT-8; 50 mg/kg/time iv × 10 bid,0.655 ± 0.08 g
same,Inhibition Rate %,human colon cancer HCT-8; [14],54.20%
same,apoptosis,[10],triggered apoptosis
same,cell cycle effect,[10],arrest NSCLC cells at cell cycle G2-M phase
same,IC50 in human glioma cells,human glioma cells; 24 hr,95.52 µg/mL
same,IC50 in human glioma cells,human glioma cells; 48 hr,88.48 µg/mL
same,IC50 in human glioma cells,human glioma cells; 72 hr,93.34 µg/mL
same,IC50,"A549 lung cancer; A549, 24 h",62.0 µg/mL
same,IC50,"A549 lung cancer; A549, 48 h",55.6 µg/mL
same,IC50,"A549 lung cancer; A549, 72 h",56.4 µg/mL
same,IC50,"STTG1 brain tumor; STTG1, 24 h",112 µg/mL
same,IC50,"STTG1 brain tumor; STTG1, 48 h",115 µg/mL
same,IC50,"STTG1 brain tumor; STTG1, 72 h",112 µg/mL
same,IC50,[11],194 ± 19.3 µg/mL
same,IC50,A-172 brain tumor,80 µg/mL
